{"source": "patent US4272538A", "about": "“5-Nitro-imidazole with antiprotozoic activity” (Rotta Research Laboratorium S.p.A., priority 1978, dated 1981)", "key": {"Trichomonas Vaginalis": {"tested_on": "Trichomonas Vaginalis", "assay": "Systemic activity in mice infected subcutaneously with Trichomonas Vaginalis", "assay_type": "in vivo", "experimental": "(B1) Systematic activity in mice infected subcutaneously with Trichomonas Vaginalis Female Charles River mice of about 20 grams weight are used and injected subcutaneously with 1 ml of a physiological solution containing 10^6 cells of Trichomonas Vaginalis (evaluated by means of counting in a Burker chamber), resulting from a 24 hour culture in Trichosel BBL substrate containing 15% in weight/volume of deactivated horse serum. Abscesses are thus developed in the place of infection which may burst open externally, piercing the skin. To establish the activity of a product, groups of 10 animals per tested dose are used, and on the 7th day the presence or absence of abscesses are determined (evaluated in terms of all or nothing). The compounds are administered orally, dissolved or in suspension in water, over 5 days, twice a day, the treatment being started 30 minutes after infection. The results obtained are recorded in Table 2 which gives the ED84 in mg/kg for oral administration, that is the dose of the drug capable of preventing the formation of the infection in 84% of the infected animals."}, "[1]": {"conditions": "cited from earlier work"}, "Entamoeba Histolytica": {"tested_on": "Entamoeba Histolytica", "assay": "Systemic activity on hepatic abscess from Entamoeba Histolytica in the hamster", "assay_type": "in vivo", "experimental": "(B2) Systemic activity on hepatic abscess from Entamoeba Histolytica in the hamster Golden hamsters of the strain RRL-805 of about 50 grams weight are used; after laparatomy, 0.05 ml of a suspension of amoebae (cellular density of about 10^6 amoebae/ml) is injected into the right hepatic lobe. Abscesses develop on the liver, the average weight of which is determined after killing of the animals 72 hours after the injection. The drugs under examination are administered orally twice a day for four days, the treatment being started the day before the infection. The evaluation is carried out by comparing the average weight of the hepatic abscesses developed in the group of animals treated with a drug with that of a control group. The results obtained are recorded in Table 3 which gives the ED84 in mg/kg administered orally, that is the dose of the drug capable of reducing the weight of the abscesses by 84% with respect to the controls. The values given were calculated from the regression line obtained from the results of a series of experiments, each compound being administered to at least 5 groups of six animals at generally different doses."}}}
{"smiles": "O=[N+]([O-])c1cncn1CCN1CCOCC1", "note": "[Nimorazole, reference compound]", "values": [{"measurement": "ED84", "setting": "Trichomonas Vaginalis; Trichomonas vaginalis, 168 h, oral, twice a day over 5 days, dose preventing infection in 84% of animals, (S)/(NS) = significance of regression line, read-out: ED84, anti-trichomonas activity in mice", "result": 62.6, "unit": "mg/kg"}, {"measurement": "Index of relative activity calc. on ED84 (vs metronidazole), mice", "setting": "Trichomonas Vaginalis; relative to metronidazole = 1", "result": 0.45}, {"measurement": "LD50, acute oral toxicity (data from literature, rat)", "setting": "[1]", "result": 3180, "unit": "mg/kg"}, {"measurement": "ED84", "setting": "Entamoeba Histolytica; Entamoeba histolytica, 72 h, oral, twice a day for four days, dose reducing abscess weight by 84% vs controls, (S)/(NS) = significance of regression line, read-out: ED84, anti-amoebic activity in the hamster", "result": 133, "unit": "mg/kg"}, {"measurement": "Index of relative activity calc. on the ED84 (vs metronidazole), hamster", "setting": "Entamoeba Histolytica; relative to metronidazole = 1", "result": 0.8}]}
